The source of these data is paper PMC9529548 (Computational and Structural Biotechnology Journal, 2022).

The subject of the test is T1, E. coli transhydrogenase (PntA (α) and PntB (β)).
T1 construct: full-length wild-type holoenzyme from E. coli membranes, DDM-solubilised, Ni-NTA (tag not described) and SEC; dimer of two identical protomers (alpha2beta2)
Description: spectrophotometric reduction of APAD+ by NADPH, […] nm. The test is classed as biochemical, Escherichia coli. The conditions noted are these: 100 uM APAD+, 100 uM NADPH, 25 mM HEPES pH 7.5, 50 mM KCl, asolectin, 0.1% DDM, 37 °C; reverse reaction.

T1 sequence (P0AB67 whole entry): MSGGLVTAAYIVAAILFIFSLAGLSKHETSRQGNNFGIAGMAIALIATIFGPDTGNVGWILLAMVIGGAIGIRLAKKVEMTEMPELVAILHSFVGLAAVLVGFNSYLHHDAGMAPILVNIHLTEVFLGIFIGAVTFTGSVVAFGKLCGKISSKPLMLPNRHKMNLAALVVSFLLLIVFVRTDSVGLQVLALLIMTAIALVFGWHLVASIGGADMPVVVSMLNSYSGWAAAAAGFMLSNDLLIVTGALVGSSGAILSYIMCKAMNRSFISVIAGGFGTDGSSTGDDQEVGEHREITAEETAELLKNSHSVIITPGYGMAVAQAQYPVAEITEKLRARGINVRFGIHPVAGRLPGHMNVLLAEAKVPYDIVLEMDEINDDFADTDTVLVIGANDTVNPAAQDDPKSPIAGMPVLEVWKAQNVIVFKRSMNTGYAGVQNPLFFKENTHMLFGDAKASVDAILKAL
T1 sequence (P07001 whole entry, further chain): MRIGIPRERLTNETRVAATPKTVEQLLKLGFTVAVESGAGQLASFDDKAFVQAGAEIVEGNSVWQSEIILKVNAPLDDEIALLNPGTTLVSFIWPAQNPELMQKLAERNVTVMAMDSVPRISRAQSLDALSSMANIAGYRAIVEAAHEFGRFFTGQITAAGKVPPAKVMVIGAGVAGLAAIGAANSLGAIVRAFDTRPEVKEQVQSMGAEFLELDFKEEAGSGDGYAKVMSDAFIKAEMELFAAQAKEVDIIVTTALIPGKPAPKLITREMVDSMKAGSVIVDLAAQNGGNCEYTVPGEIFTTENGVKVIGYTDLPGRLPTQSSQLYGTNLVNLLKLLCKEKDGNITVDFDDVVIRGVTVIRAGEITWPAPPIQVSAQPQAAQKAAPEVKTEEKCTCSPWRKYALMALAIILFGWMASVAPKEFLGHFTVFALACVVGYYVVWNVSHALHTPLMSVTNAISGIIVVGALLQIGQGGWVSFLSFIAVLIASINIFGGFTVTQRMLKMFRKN

Turning to `CC(=O)c1ccc[n+]([C@@H]2O[C@H](COP(=O)(O)OP(=O)(O)OC[C@H]3O[C@@H](n4cnc5c(N)ncnc54)[C@H](O)[C@@H]3O)[C@@H](O)[C@H]2O)c1` [APAD^+], the “spectrophotometric reduction of APAD+ by NADPH, 375 nm” value was “reverse transhydrogenase activity of the protein in DDM was measured using the reduction of APAD^+”.
